The test deals with T1, glucocorticoid receptor (Homo sapiens, UniProt P04150).
T1 construct: expressed in transfected cells
T1 sequence (P04150 524-758 limits assumed): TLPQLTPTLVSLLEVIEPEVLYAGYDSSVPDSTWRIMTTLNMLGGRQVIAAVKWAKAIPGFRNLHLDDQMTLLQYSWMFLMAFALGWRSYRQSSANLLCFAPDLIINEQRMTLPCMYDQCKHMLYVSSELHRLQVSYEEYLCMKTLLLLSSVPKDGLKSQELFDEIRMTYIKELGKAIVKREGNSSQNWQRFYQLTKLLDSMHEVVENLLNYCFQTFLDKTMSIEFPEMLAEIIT
Nature of the test: Agonistic mode of action on the glucocorticoid receptor (CHO-Gal4/GR luciferase reporter cell line). The following applies: range class observed in the agonistic assay or the antagonistic assay (CHO-Gal4/GR reporter cells); table does not say which mode applies per example. It counts as cell-based. Summed up:
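Agonism measured as dose-dependent luciferase luminescence (FLIPR Tetra) from a GAL4-UAS reporter driven by GAL4 DBD fused to GR ligand-binding domain in stable CHO cells. Eight half-log doses, 10 μM to 0.003 μM final in 0.5% DMSO, quadruplicate, on cells seeded 24 h earlier at 5000/well; EC50 derived.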

Among the data in patent US12110293B2, “Substituted triazolo quinoxaline derivatives” (GRÜNENTHAL GMBH, priority 2018, dated 2024) are IC50 or EC50 (agonist or antagonist mode not specified) values, retold here.

Bounds are passed on as bounds.

Turning to `Cc1c(-c2cc(F)cc3c2ccn3CCO)c(OC(F)(F)F)cc2c1-n1c(C)nnc1C(C)(C)N2` [Example 471, 2-[6-Fluoro-4-[1,4,4,9-tetramethyl-7-(trifluoromethyloxy)-5H-[1,2,4]triazolo[4,3-a]quinoxalin-8-yl]-1H-indol-1-yl]-ethanol], the IC50 or EC50 (agonist or antagonist mode not specified) was 100 to 1000 nM.
`Cc1nnc2n1-c1c(cc(F)c(-c3cccc4c3ccn4CC(F)F)c1C(F)F)NC2(C)C` [Example 398, 8-[1-(2,2-Difluoro-ethyl)-1H-indol-4-yl]-9-(difluoro-methyl)-7-fluoro-1,4,4-trimethyl-5H-[1,2,4]triazolo [4,3-a]quinoxaline]: the IC50 or EC50 (agonist or antagonist mode not specified) lay in the range of 100 to 1000 nM.
Then `Cc1nnc2n1-c1c(cc(F)c(-c3cccc4[nH]ccc34)c1C(F)(F)F)NC2(C)C` [Example 467, 7-Fluoro-8-(1H-indol-4-yl)-1,4,4-trimethyl-9-(trifluoromethyl)-5H-[1,2,4]triazolo[4,3-a]quinoxaline], with < 100 nM; and `Cc1nnc2n1-c1c(cc(F)c(-c3cccc4c3cnn4S(=O)(=O)C3CC3)c1F)NC2(C)C` [Example 234, 8-[1-(Cyclopropylsulfonyl)-1H-indazol-4-yl]-7,9-difluoro-1,4,4-trimethyl-5H-[1,2,4]triazolo[4,3-a]quinoxaline], with 1000 to 15000 nM; and `CCc1nnc2n1-c1c(cc(F)c(-c3cc(C)cc4c(C#N)c[nH]c34)c1F)NC2(C)C` [Example 17, 7-(1-ethyl-7,9-difluoro-4,4-dimethyl-4,5-dihydro-[1,2,4]triazolo[4,3-a]quinoxalin-8-yl)-5-methyl-1H-indole-3-carbonitrile], with 100 to 1000 nM.
The value for `Cc1nnc2n1-c1c(cc(F)c(-c3cccc4c3ccn4S(=O)(=O)C3CCCC3)c1F)NC2(C)C` [Example 201, 8-[1-(Cyclopentylsulfonyl)-1H-indol-4-yl]-7,9-difluoro-1,4,4-trimethyl-5H-[1,2,4]triazolo[4,3-a]quinoxaline] was 1000 to 15000 nM; that for `COc1cc2c(c(F)c1-c1cccc3[nH]c(C(F)(F)F)cc13)-n1c(C)nnc1C(C)(C)N2` [Example 257, 9-Fluoro-7-methoxy-1,4,4-trimethyl-8-[2-(trifluoromethyl)-1H-indol-4-yl]-5H-[1,2,4]triazolo[4,3-a]quinoxaline] was 100 to 1000 nM; that for `COCCn1ccc2c(-c3c(OC(F)F)cc4c(c3F)-n3c(C)nnc3C(C)(C)N4)cc(F)cc21` [Example 394, 7-(Difluoro-methoxy)-9-fluoro-8-[6-fluoro-1-(2-methoxy-ethyl)-1H-indol-4-yl]-1,4,4-trimethyl-5H-[1,2,4]triazolo[4,3-a]quinoxaline] was 1000 to 15000 nM.
For `Cc1nnc2n1-c1c(cc(F)c(-c3cccc4c3ccn4CCO)c1C(F)(F)F)NC2(C)C` [Example 456, 2-[4-[7-Fluoro-1,4,4-trimethyl-9-(trifluoromethyl)-5H-[1,2,4]triazolo[4,3-a]quinoxalin-8-yl]-1H-indol-1-yl]-ethanol], the IC50 or EC50 (agonist or antagonist mode not specified) is 100 to 1000 nM.
The value for `Cc1c(-c2cc(C(F)(F)F)cc3[nH]ccc23)c(F)cc2c1-n1c(C)nnc1C(C)(C)N2` [Example 470, 7-Fluoro-1,4,4,9-tetramethyl-8-[6-(trifluoromethyl)-1H-indol-4-yl]-5H-[1,2,4]triazolo[4,3-a]quinoxaline] was 100 to 1000 nM; that for `Cc1nnc2n1-c1c(ccc(-c3cc(F)cc4c3ccn4C)c1C(F)(F)F)NC2(C)C` [Example 522, 8-(6-Fluoro-1-methyl-1H-indol-4-yl)-1,4,4-trimethyl-9-(trifluoro-methyl)-5H-[1,2,4]triazolo[4,3-a] quinoxaline] was 100 to 1000 nM.
On to `COc1c(-c2cccc3[nH]ccc23)c(F)cc2c1-n1c(C)nnc1C(C)(C)N2` [Example 286, 7-Fluoro-8-(1H-indol-4-yl)-9-methoxy-1,4,4-trimethyl-5H-[1,2,4]triazolo[4,3-a]quinoxaline], for which the IC50 or EC50 (agonist or antagonist mode not specified) lay in the range of 100 to 1000 nM.
In turn, `Cc1c[nH]c2c(-c3c(OC(F)F)cc4c(c3F)-n3c(C)nnc3C(C)(C)N4)cc(F)cc12` [Example 267, 7-(Difluoro-methoxy)-9-fluoro-8-(5-fluoro-3-methyl-1H-indol-7-yl)-1,4,4-trimethyl-5H-[1,2,4]triazolo[4,3-a]quinoxaline] gave an IC50 or EC50 (agonist or antagonist mode not specified) of 100 to 1000 nM.
With `CCS(=O)(=O)n1ccc2c(-c3c(F)cc4c(c3C)-n3c(C)nnc3C(C)(C)N4)cccc21` [Example 372, 8-[1-(Ethylsulfonyl)-1H-indol-4-yl]-7-fluoro-1,4,4,9-tetramethyl-5H-[1,2,4]triazolo[4,3-a]quinoxaline], the IC50 or EC50 (agonist or antagonist mode not specified) was < 100 nM.
The value for `Cc1c(-c2cccc3c(CC(F)(F)F)c[nH]c23)c(F)cc2c1-n1c(C)nnc1C(C)(C)N2` [Example 24, 7-fluoro-1,4,4,9-tetramethyl-8-(3-(2,2,2-trifluoroethyl)-1H-indol-7-yl)-4,5-dihydro-[1,2,4]triazolo[4,3-a]quinoxaline] was < 100 nM; that for `Cc1nnc2n1-c1c(cc(F)c(-c3cc(F)cc4c3ccn4CCO)c1C(F)(F)F)NC2(C)C` [Example 447, 2-[6-Fluoro-4-[7-fluoro-1,4,4-trimethyl-9-(trifluoromethyl)-5H-[1,2,4]triazolo[4,3-a]quinoxalin-8-yl]-1H-indol-1-yl]-ethanol] was 100 to 1000 nM.
The value for `Cc1c(-c2ccc(F)c3[nH]ccc23)c(Cl)cc2c1-n1c(C)nnc1C(C)(C)N2` [Example 506, 7-Chloro-8-(7-fluoro-1H-indol-4-yl)-1,4,4,9-tetramethyl-5H-[1,2,4]triazolo[4,3-a]quinoxaline] was 100 to 1000 nM; that for `Cc1nnc2n1-c1c(cc(F)c(-c3ccc(F)c4[nH]ncc34)c1F)NC2(C)C` [Example 501, 7,9-Difluoro-8-(7-fluoro-1H-indazol-4-yl)-1,4,4-trimethyl-5H-[1,2,4]triazolo[4,3-a]quinoxaline] was 100 to 1000 nM.
Consider `Cc1c[nH]c2c(-c3ccc4c(c3C(F)(F)F)-n3c(C)nnc3C(C)(C)N4)cc(F)cc12` [Example 507, 8-(5-Fluoro-3-methyl-1H-indol-7-yl)-1,4,4-trimethyl-9-(trifluoro-methyl)-5H-[1,2,4]triazolo[4,3-a] quinoxaline], for which the IC50 or EC50 (agonist or antagonist mode not specified) is < 100 nM.
The value for `Cc1c[nH]c2c(-c3c(F)cc4c(c3F)-n3c(Cc5ccccc5)nnc3C(C)(C)N4)cc(F)cc12` [Example 67, 1-Benzyl-7,9-difluoro-8-(5-fluoro-3-methyl-1H-indol-7-yl)-4,4-dimethyl-5H-[1,2,4]triazolo[4,3-a]quinoxaline] was 1000 to 15000 nM; that for `COCCn1ccc2c(-c3c(Cl)cc4c(c3C)-n3c(C)nnc3C(C)(C)N4)cccc21` [Example 338, 7-Chloro-8-[1-(2-methoxy-ethyl)-1H-indol-4-yl]-1,4,4,9-tetramethyl-5H-[1,2,4]triazolo[4,3-a]quinoxaline] was 100 to 1000 nM; that for `COCCn1ncc2c(-c3c(OC(F)(F)F)cc4c(c3C)-n3c(C)nnc3C(C)(C)N4)cc(F)cc21` [Example 480, 8-[6-Fluoro-1-(2-methoxy-ethyl)-1H-indazol-4-yl]-1,4,4,9-tetramethyl-7-(trifluoromethyloxy)-5H-[1,2,4]triazolo[4,3-a]quinoxaline] was 100 to 1000 nM.
`CCc1c(-c2cccc3c2cnn3S(C)(=O)=O)c(F)cc2c1-n1c(C)nnc1C(C)(C)N2` [Example 51, 9-Ethyl-7-fluoro-1,4,4-trimethyl-8-(1-methylsulfonyl-1H-indazol-4-yl)-5H-[1,2,4]triazolo[4,3-a]quinoxaline] showed an IC50 or EC50 (agonist or antagonist mode not specified) of 100 to 1000 nM.
`Cc1nnc2n1-c1c(cc(F)c(-c3cccc4c3ccn4CCNC(=O)C(C)(F)F)c1F)NC2(C)C` [Example 229, N-[2-[4-(7,9-Difluoro-1,4,4-trimethyl-5H-[1,2,4]triazolo[4,3-a]quinoxalin-8-yl)-1H-indol-1-yl]-ethyl]-2,2-difluoro-propionamide] showed an IC50 or EC50 (agonist or antagonist mode not specified) of 1000 to 15000 nM.
Then `Cc1cc(-c2c(F)cc3c(c2F)-n2c(C)nnc2C(C)(C)N3)c2ccn(S(C)(=O)=O)c2c1` [Example 492, 7,9-Difluoro-1,4,4-trimethyl-8-(6-methyl-1-methylsulfonyl-1H-indol-4-yl)-5H-[1,2,4]triazolo [4,3-a]quinoxaline], with < 100 nM.
Turning to `CCc1nnc2n1-c1c(cc(F)c(-c3cccc4cc[nH]c34)c1F)NC2(C)C` [Example 11, 1-ethyl-7,9-difluoro-8-(1H-indol-7-yl)-4,4-dimethyl-4,5-dihydro-[1,2,4]triazolo[4,3-a]quinoxaline], the IC50 or EC50 (agonist or antagonist mode not specified) was in the range of 100 to 1000 nM.
`CCn1ncc2c(-c3c(F)cc4c(c3F)-n3c(C)nnc3C(C)(C)N4)cccc21` [Example 236, 8-(1-Ethyl-1H-indazol-4-yl)-7,9-difluoro-1,4,4-trimethyl-5H-[1,2,4]triazolo[4,3-a]quinoxaline] gave an IC50 or EC50 (agonist or antagonist mode not specified) of 100 to 1000 nM.
Regarding `Cc1nnc2n1-c1c(cc(F)c(-c3cc(F)cc4c3ccn4C3CC3)c1F)NC2(C)C` [Example 2, 8-(1-cyclopropyl-6-fluoro-1H-indol-4-yl)-7,9-difluoro-1,4,4-trimethyl-4,5-dihydro-[1,2,4]triazolo[4,3-a]quinoxaline], the IC50 or EC50 (agonist or antagonist mode not specified) was < 100 nM.
